Twelve molecules from ChEMBL document CHEMBL3046642, “17-Oximino-5-androsten-3-yl esters: synthesis, antiproliferative activity, acute toxicity, and effect on serum androgen level” (Med Chem Res, 2011) can be followed below.

The source made the active and inactive calls. The calls are words filed in the database; no cut-off is given here.

The test system of data set [1] is DU-145. Kind of data set: Cytotoxicity against Homo sapiens (human) DU145 cells after 48 hr by MTT assay. The data set is classed as functional, cell-based. A general note: Tetrazolium assays rely on reduction of a dye to a coloured formazan, in cell work by metabolically active cells.
Data set [2] deals with DU-145. Kind of data set: Growth inhibition of Homo sapiens (human) DU145 cells at 1 ug/ml after 48 hr by MTT assay. It counts as functional. Conditions: for inhibition of growth at 1 µg/mL: DU-145, 48 h, read-out: GI.
Data set [3] deals with DU-145. As to the kind of experiment: Growth inhibition of Homo sapiens (human) DU145 cells at 0.5 ug/ml after 48 hr by MTT assay. It counts as functional. As to conditions: for inhibition of growth at 0.5 µg/mL: DU-145, 48 h, read-out: GI.
For data set [4], the system named is DU-145. As to the kind of experiment: Growth inhibition of Homo sapiens (human) DU145 cells at 2 ug/ml after 48 hr by MTT assay. It counts as functional. Conditions: for inhibition of growth at 2 µg/mL: DU-145, 48 h, read-out: GI.
In data set [5] the test system is DU-145. Kind of data set: Growth inhibition of Homo sapiens (human) DU145 cells at 5 ug/ml after 48 hr by MTT assay. As to conditions: for inhibition of growth at 5 µg/mL: DU-145, 48 h, read-out: GI. It counts as functional.
For data set [6], the system named is Rattus norvegicus. As to the kind of experiment: Inhibition of 5alpha-reductase in Rattus norvegicus Sprague-Dawley (rat) assessed as increase in serum testosterone at 40 mg/kg, ip after 6 hr by ELISA. It counts as functional, organism-based. Set-up: dose 40 mg/kg. On the technique in general: An ELISA detects its analyte on a solid surface through an enzyme-linked reagent.

Data set [7] has as its system DU-145. As to the kind of experiment: Growth inhibition of Homo sapiens (human) DU145 cells at 0.01 ug/ml after 48 hr by MTT assay. The data set is classed as functional. Conditions: for inhibition of growth at 0.01 µg/mL: DU-145, 48 h, read-out: GI.
A short description of data set [8]: Cytotoxicity against Mus musculus Balb/c (mouse) macrophages after 24 hr by MTT assay. As to conditions: read-out: LC50. It counts as cell-based, Macrophage.
Where [9] appears, read: Homo sapiens, DU-145, 48 h, read-out: IC50.

For orientation: IC50 means the concentration needed to halve the response being measured. `C[C@]12CC[C@H](OC(=O)CCl)CC1=CC[C@@H]1[C@@H]2CC[C@]2(C)/C(=N/O)CC[C@@H]12`: the IC50 in data set [1] (setting [9]) was 4.8 µM. Also, the inhibition of growth at 1 µg/mL in data set [2] worked out at 56%. In data set [3], the inhibition of growth at 0.5 µg/mL worked out at 55%. The inhibition of growth at 2 µg/mL in data set [4] turned out to be 56%. In addition, in data set [5], the inhibition of growth at 5 µg/mL worked out at 59.2%. Moreover, the inhibition result in data set [6] is “Active”. For the same molecule, the inhibition of growth at 0.01 µg/mL in data set [7] turned out to be 53%. For the same molecule, the CC50 at 24 h in data set [8] is 28 µM.
For `C[C@]12CC[C@H](OC(=O)c3ccc(N)cc3)CC1=CC[C@@H]1[C@@H]2CC[C@]2(C)/C(=N/O)CC[C@@H]12`, the IC50 in data set [1] (setting [9]) stood at 3.7 µM. In addition, in data set [5], the inhibition of growth at 5 µg/mL was 91%. In addition, the inhibition entry in data set [6] is “Active”. Further, in data set [8], the CC50 at 24 h stood at 29.4 µM.
Take `Cc1ccc(C(=O)O[C@H]2CC[C@@]3(C)C(=CC[C@@H]4[C@@H]3CC[C@]3(C)/C(=N/O)CC[C@@H]43)C2)cc1`: the IC50 in data set [1] (setting [9]) was found to be 2.3 µM. Further, the inhibition of growth at 5 µg/mL in data set [5] is 92.9%. For the same molecule, in data set [6], the inhibition entry was “Active”. In addition, the CC50 at 24 h in data set [8] worked out at 22 µM.
For the molecule `CC(C)(C)NC(=O)[C@H]1CC[C@H]2[C@@H]3CC[C@H]4NC(=O)C=C[C@]4(C)[C@H]3CC[C@]12C` [FINASTERIDE], the inhibition of growth at 2 µg/mL in data set [4] came to 36%. The inhibition of growth at 5 µg/mL in data set [5] was determined as 78.5%. In data set [6], the inhibition entry was “Active”. The inhibition of growth at 0.01 µg/mL in data set [7] was 5%. In addition, the CC50 at 24 h in data set [8] came to 28.2 µM.
For `COc1ccc(C(=O)O[C@H]2CC[C@@]3(C)C(=CC[C@@H]4[C@@H]3CC[C@]3(C)/C(=N/O)CC[C@@H]43)C2)cc1`, the IC50 in data set [1] (setting [9]) was 5.4 µM. For the same molecule, the inhibition of growth at 1 µg/mL in data set [2] came out at 59.2%. For the same molecule, the inhibition of growth at 0.5 µg/mL in data set [3] was determined as 51.4%. Also, the inhibition of growth at 2 µg/mL in data set [4] came out at 65.6%. Moreover, the inhibition of growth at 5 µg/mL in data set [5] came to 69.5%. Besides, in data set [6], the inhibition result was “inactive”. Also, the inhibition of growth at 0.01 µg/mL in data set [7] came to 30.7%. Also, the CC50 at 24 h in data set [8] came out at 14 µM.
`C[C@]12CC[C@H](OC(=O)c3ccc(Cl)cc3)CC1=CC[C@@H]1[C@@H]2CC[C@]2(C)/C(=N/O)CC[C@@H]12`: the IC50 in data set [1] (setting [9]) stood at 3.4 µM. Besides, the inhibition of growth at 5 µg/mL in data set [5] turned out to be 84.5%. The inhibition result in data set [6] is “Active”. In addition, the CC50 at 24 h in data set [8] amounted to 24 µM.
Regarding `C[C@]12CC[C@H](OC(=O)Cc3ccccc3)CC1=CC[C@@H]1[C@@H]2CC[C@]2(C)/C(=N/O)CC[C@@H]12`, the IC50 in data set [1] (setting [9]) was found to be 6.5 µM. Also, the “growth inhibition (GI)” value in data set [2], in data set [3], in data set [4], in data set [5] and in data set [7] was “inactive” in each case. Also, in data set [6], the inhibition entry was “Active”. Besides, the CC50 at 24 h in data set [8] worked out at 11.8 µM.
In the case of `C[C@]12CC[C@H](O)CC1=CC[C@@H]1[C@@H]2CC[C@]2(C)/C(=N/O)CC[C@@H]12`, the IC50 entry in data set [1] (du-145) is listed as “Not Active”. Besides, the “growth inhibition (GI)” value in data set [2], in data set [3], in data set [4], in data set [5] and in data set [7] was “inactive” in each case. Further, the inhibition result in data set [6] was “Active”.
For `C[C@]12CC[C@H](OC(=O)c3ccc([N+](=O)[O-])cc3)CC1=CC[C@@H]1[C@@H]2CC[C@]2(C)/C(=N/O)CC[C@@H]12`, the IC50 in data set [1] (setting [9]) is 3.07 µM. For the same molecule, the inhibition of growth at 5 µg/mL in data set [5] is 81.5%. In addition, the inhibition result in data set [6] is “Active”. For the same molecule, the CC50 at 24 h in data set [8] is 19.5 µM.
For `C[C@]12CC[C@H](OC(=O)COc3ccccc3)CC1=CC[C@@H]1[C@@H]2CC[C@]2(C)/C(=N/O)CC[C@@H]12`, the IC50 in data set [1] (setting [9]) was determined as 6.3 µM. Further, the inhibition result in data set [6] was “Active”. Besides, in data set [8], the CC50 at 24 h was determined as 89 µM.
On to `C[C@]12CC[C@H](OC(=O)c3ccc(O)cc3)CC1=CC[C@@H]1[C@@H]2CC[C@]2(C)/C(=N/O)CC[C@@H]12`, for which, in data set [1] (setting [9]), the IC50 amounted to 2.9 µM. Further, in data set [5], the inhibition of growth at 5 µg/mL turned out to be 91.5%. Also, the inhibition entry in data set [6] was “inactive”. For the same molecule, the CC50 at 24 h in data set [8] was determined as 22 µM.
For `C[C@]12CC[C@H](OC(=O)c3ccccc3)CC1=CC[C@@H]1[C@@H]2CC[C@]2(C)/C(=N/O)CC[C@@H]12`, in that order: 3.8 µM, 91.1%, “Active” and 89.4 µM.
